Experimental data from patent US20250008957A1, “METHOD OF IMPROVING PLANT GROWTH” (UPL LIMITED, priority 2021, published 2025).

Legend:
[1] = tested on: corn seeds; experiment: Seed treatment of corn seeds with flonicamid combinations: root length and fresh weight of seedlings; format: in vivo, Zea mays; conditions: 5 ml/kg of seed; for Fresh weight: seedlings
Procedure: (§1) 7 kg of untreated clean seeds of Zea mays were collected. The seeds were 5 mixed thoroughly in a tray to make them homogeneous. 21 sub-samples of 300 g each were prepared. A polythene bag was used for the treatment of each sample with flonicamid combinations. The formulation was used at a dosage of 5 ml/kg of seed. Before treating, the seeds were checked for their initial moisture content and minimum germination percentage. After the treatment, the treated seeds were dried in a hot air chamber having temperature of 40-43° C. to maintain their original moisture content. Table 5 discloses the effect on root length and Table 6 discloses fresh weight of the seedlings.

[2] = tested on: corn seeds; experiment: Germination index of treated corn seeds by petri dish method; format: in vivo, Zea mays; conditions: 5 ml/kg of seed
Procedure: as §1, with “were” for “were 5”, “Table 10” for “Table 5”, “the germination index” for “the effect on root length and Table 6 discloses fresh weight”, “of corn seeds by petri dish method.” for “of the seedlings.”

Structure (SMILES)	Root length [1] [cm]	Germination index ([2]; 4th day)	Germination index ([2]; 7th day)	Fresh weight [1] [g]
CC1=C(C(=O)Nc2ccccc2)SCCO1 [Carboxin 200 g/L, carboxin]	14.25	–	–	–
CNC(=O)c1cc(Cl)cc(C)c1NC(=O)c1cc(Br)nn1-c1ncccc1Cl [Chlorantraniliprole 120 g/L, Chlorantraniliprole]	–	7	1	–
CNC(=O)c1cc(C#N)cc(C)c1NC(=O)c1cc(Br)nn1-c1ncccc1Cl [Cyantraniliprole 120 g/L, Cyantraniliprole]	14.25	7	3	20.92
N#CCNC(=O)c1cnccc1C(F)(F)F [Flonicamid 240 g/L, N-cyanomethyl-4-trifluoromethylnicotinamide]	–	7	3	–
N#CCNC(=O)c1cnccc1C(F)(F)F [Flonicamid 360 g/L, N-cyanomethyl-4-trifluoromethylnicotinamide]	12.5	7	1	22.73
N#Cc1c[nH]cc1-c1cccc2c1OC(F)(F)O2 [Fludioxonil 25 g/L, fludioxonil]	14	8	1	–
CC(C)C1CCC(Cc2ccc(Cl)cc2)C1(O)Cn1cncn1 (centres unmarked) [Ipconazole 25 g/L, ipconazole]	–	7	3	–
COCC(=O)N(c1c(C)cccc1C)C(C)C(=O)OC (centres unmarked) [Metalayxl 50 g/L, metalaxyl]	15	7	3	25.72
CN1COCN(Cc2cnc(Cl)s2)/C1=N\[N+](=O)[O-] [Thiamethoxam]	11.75	7	2	19.31
